From patent US5198458A, “Pyrrolidineamide derivatives of acylamino acid and pharmaceutical composition containing the same” (Suntory Limited, priority 1986, dated 1993)
Blank lines part the entries; values can stand above or below the molecule they belong to.

How the values were obtained:
[1] = tested on: experimental amnesia caused in rats by scopolamine; assay: Preventive effect against experimental amnesia caused in rats by scopolamine (passive avoidance learning, intraperitoneal administration); assay type: in vivo, Wister male rats; conditions: for No. of avoidances during learning / Initial avoidance time: before scopolamine (3 mg/kg i.p.); for Initial avoidance time: learning; for Avoidance time After 24 hrs / No. of amnesic rats/No. of rats tested / Percentage amnesia: scopolamine 3 mg/kg i.p. after learning, 24 hrs
Method: Measurement of preventive effect against experimental amnesia caused in rats by scopolamine (Intraperitoneal administration)
Several of the anti-prolyl endopeptidase compounds according to the present invention were checked for their ability to prevent the inhibition of long-term memory fixation by scopolamine. […] One hour after the administration, electric shocks were applied to the rats so that they would acquire passive avoidance learning. Immediately thereafter, scopolamine was administered intraperitoneally to each rat in an amount of 3 mg per kg of body weight.
The results of the test were assessed 24 hours after the administration of scopolamine. The number of amnesic rats and of sound rats was counted for each of the control group (rats to which the test compounds were not administered but to which only scopolamine and physiological saline were administered intraperitoneally) and the treated group (rats to which both the test compound and scopolamine were administered).

prolyl endopeptidase = prolyl endopeptidase (Elizabethkingia meningoseptica, UniProt P27028); assay type: biochemical; conditions: amount per test tube for 50% inhibition; pH 7.0, 35° C., 10 minutes
Sequence of prolyl endopeptidase (P27028 21-705): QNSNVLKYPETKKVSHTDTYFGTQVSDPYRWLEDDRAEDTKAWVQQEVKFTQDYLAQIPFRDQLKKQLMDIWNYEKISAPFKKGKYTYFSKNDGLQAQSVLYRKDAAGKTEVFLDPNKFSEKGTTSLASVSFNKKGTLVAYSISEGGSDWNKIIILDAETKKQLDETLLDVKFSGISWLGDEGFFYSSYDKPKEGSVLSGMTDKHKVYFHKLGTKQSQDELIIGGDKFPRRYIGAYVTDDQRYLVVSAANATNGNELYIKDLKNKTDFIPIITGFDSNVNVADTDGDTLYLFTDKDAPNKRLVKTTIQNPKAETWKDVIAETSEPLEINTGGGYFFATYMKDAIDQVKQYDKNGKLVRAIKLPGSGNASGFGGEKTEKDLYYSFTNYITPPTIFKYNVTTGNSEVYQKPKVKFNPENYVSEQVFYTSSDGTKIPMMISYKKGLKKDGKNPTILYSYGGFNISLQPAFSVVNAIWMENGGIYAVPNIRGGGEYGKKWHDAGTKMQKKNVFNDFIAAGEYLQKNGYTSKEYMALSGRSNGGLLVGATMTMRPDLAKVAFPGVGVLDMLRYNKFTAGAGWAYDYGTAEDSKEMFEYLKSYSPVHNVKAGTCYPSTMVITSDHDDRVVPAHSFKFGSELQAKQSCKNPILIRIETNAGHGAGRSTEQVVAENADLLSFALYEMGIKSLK
Method: Measurement of anti-prolyl endopeptidase activity
The method of Yoshimoto and Tsuru [T. Yoshimoto and D. Tsuru, Agric. […] A mixture of 0.0025M Z-glycyl-proline-β-naphthylamide (0.25 ml), 0.1M phosphate buffer (pH, 7.0; 0.99 ml) and a solution of a particular anti-propyl endopeptidase compound (0.01 ml) was incubated in a test tube at 37° C. for 3 minutes. Thereafter, 0.1 ml of a solution of prolyl endopeptidase (0.2 U/ml) was added and the mixture was incubated at 35° C. for 10 minutes. After the reaction, 2.0 ml of Triton X-100 in 1M acetate buffer (pH, 4.0) was added to the reaction mixture so that the final concentration of the surfactant was 10%. The mixture was left at room temperature for 15 minutes and the absorbance (a) at 410 nm was measured.
A sample of a blind test was prepared by using the buffer instead of the anti-prolyl endopeptidase compound and its absorbance (b) was also measured. The percent inhibition of prolyl endopeptidase was calculated by the formula: […]

[2] = Acute toxicity test in mice; conditions: mouse, in vivo, ip; intraperitoneal, in DMSO, five mice per group
Method: Acute toxicity test in mice
Test samples were prepared by dissolving the respective compounds in DMSO, and a portion (0.1 ml) of the so conditioned test sample was administered intraperitoneally to each of the mice used. Each of the treated groups consisted of five mice.

SMILES: CC(C)[C@H](NC(=O)CCCc1ccccc1)C(=O)N1CCCC1 [Compound No. 1, N-[N-(γ-phenyl)butyryl-L-valyl]pyrrolidine]
No. of avoidances during learning ([1]; 25 mg/kg i.p.): 1.8
Initial avoidance time ([1]; 25 mg/kg i.p.): 2.4 s
Avoidance time After 24 hrs ([1]; 25 mg/kg i.p.): 243.0 s
No. of amnesic rats/No. of rats tested ([1]; 25 mg/kg i.p.): 3/10
Percentage amnesia ([1]; 25 mg/kg i.p.): 30

SMILES: CC(C)C[C@H](NC(=O)CCCc1ccccc1)C(=O)N1CCCC1 [Compound No. 2]
IC50 (prolyl endopeptidase): 0.15 μg/test tube
LD50 [2]: > 600 mg/kg
No. of avoidances during learning ([1]; 25 mg/kg i.p.): 2.2
Initial avoidance time ([1]; 25 mg/kg i.p.): 2.7 s
Avoidance time After 24 hrs ([1]; 25 mg/kg i.p.): 264.6 s
No. of amnesic rats/No. of rats tested ([1]; 25 mg/kg i.p.): 2/10
Percentage amnesia ([1]; 25 mg/kg i.p.): 20

SMILES: O=C([C@@H]1CCCN1C(=O)CCCc1ccccc1)N1CCCC1 [Compound No. 18, N-[N-(γ-phenyl)butyryl-L-prolyl]pyrrolidine]
No. of avoidances during learning ([1]; 5 mg/kg i.p.): 1.8
Initial avoidance time ([1]; 5 mg/kg i.p.): 2.8 s
Avoidance time After 24 hrs ([1]; 5 mg/kg i.p.): 300.0 s
No. of amnesic rats/No. of rats tested ([1]; 5 mg/kg i.p.): 0/10
Percentage amnesia ([1]; 5 mg/kg i.p.): 0

IC50 (prolyl endopeptidase): 0.001 μg/test tube
SMILES: O=C([C@@H]1CCCN1C(=O)CCCOc1ccccc1/C=C/c1ccccc1)N1CCCC1 [Compound No. 35, N-{N-[γ(o-(E)-stilbenyloxy)butyryl]-L-prolyl)pyrrolidine]

IC50 (prolyl endopeptidase): 0.02 μg/test tube
SMILES: CCCCCCCC/C=C\CCCCCCCC(=O)N1CCC[C@H]1C(=O)N1CCCC1 [Compound No. 43, N-(N-oleoyl-L-prolyl)pyrrolidine]
No. of avoidances during learning ([1]; 1 mg/kg i.p.): 3.4
Initial avoidance time ([1]; 1 mg/kg i.p.): 1.9 s
Avoidance time After 24 hrs ([1]; 1 mg/kg i.p.): 240.8 s
No. of amnesic rats/No. of rats tested ([1]; 1 mg/kg i.p.): 2/10
Percentage amnesia ([1]; 1 mg/kg i.p.): 20

IC50 (prolyl endopeptidase): 0.15 μg/test tube
SMILES: CCCC[C@H](NC(=O)CCCc1ccccc1)C(=O)N1CCCC1 [compound 5]

IC50 (prolyl endopeptidase): 0.03 μg/test tube
SMILES: CC(C)C[C@H](NC(=O)CCCOc1ccccc1/C=C/c1ccccc1)C(=O)N1CCCC1 [compound 9]

IC50 (prolyl endopeptidase): 0.02 μg/test tube
SMILES: CC(C)[C@H](NC(=O)CCCOc1ccccc1/C=C/c1ccccc1)C(=O)N1CCCC1 [compound 10]

IC50 (prolyl endopeptidase): 0.08 μg/test tube
SMILES: CC(C)C[C@H](NC(=O)CCCOc1ccc(Cc2ccccc2)cc1)C(=O)N1CCCC1 [compound 12]

IC50 (prolyl endopeptidase): 0.04 μg/test tube
SMILES: CC(C)[C@H](NC(=O)CCCOc1ccc(Cc2ccccc2)cc1)C(=O)N1CCCC1 [compound 13]

IC50 (prolyl endopeptidase): 0.07 μg/test tube
SMILES: CCCCCCCC/C=C\CCCCCCCC(=O)N[C@@H](CCCC)C(=O)N1CCCC1 [compound 16]
No. of avoidances during learning ([1]; 20 mg/kg i.p.): 2.1
Initial avoidance time ([1]; 20 mg/kg i.p.): 2.2 s
Avoidance time After 24 hrs ([1]; 20 mg/kg i.p.): 252.0 s
No. of amnesic rats/No. of rats tested ([1]; 20 mg/kg i.p.): 2/10
Percentage amnesia ([1]; 20 mg/kg i.p.): 20

IC50 (prolyl endopeptidase): 0.20 μg/test tube
SMILES: O=C([C@@H]1CCCN1C(=O)COc1ccc(Cl)cc1)N1CCCC1 [compound 20]

SMILES: O=C([C@@H]1CCCN1C(=O)CCCOc1ccccc1)N1CCCC1 [compound 21]
IC50 (prolyl endopeptidase): 0.001 μg/test tube
LD50 [2]: 350 mg/kg

IC50 (prolyl endopeptidase): 0.008 μg/test tube
SMILES: O=C([C@@H]1CCCN1C(=O)CCCOc1ccccc1O)N1CCCC1 [compound 22]

IC50 (prolyl endopeptidase): 0.003 μg/test tube
SMILES: CCC(=O)c1ccc(OCCCC(=O)N2CCC[C@H]2C(=O)N2CCCC2)cc1 [compound 23]

IC50 (prolyl endopeptidase): 0.004 μg/test tube
SMILES: CCC(=O)c1ccccc1OCCCC(=O)N1CCC[C@H]1C(=O)N1CCCC1 [compound 24]

IC50 (prolyl endopeptidase): 0.008 μg/test tube
SMILES: CCCCCCCCCc1ccc(OCCCC(=O)N2CCC[C@H]2C(=O)N2CCCC2)cc1 [compound 25]

SMILES: C=CCc1ccccc1OCCCC(=O)N1CCC[C@H]1C(=O)N1CCCC1 [compound 26]
IC50 (prolyl endopeptidase): 0.002 μg/test tube
LD50 [2]: 390 mg/kg

SMILES: C=CCOc1ccccc1CCCC(=O)N1CCC[C@H]1C(=O)N1CCCC1 [compound 27]
IC50 (prolyl endopeptidase): 0.01 μg/test tube
LD50 [2]: 390 mg/kg

IC50 (prolyl endopeptidase): 0.009 μg/test tube
SMILES: O=C([C@@H]1CCCN1C(=O)CCCCOc1ccc(Oc2ccccc2)cc1)N1CCCC1 [compound 29]

IC50 (prolyl endopeptidase): 0.005 μg/test tube
SMILES: O=C([C@@H]1CCCN1C(=O)CCCOc1ccccc1OCc1ccccc1)N1CCCC1 [compound 30]

IC50 (prolyl endopeptidase): 0.004 μg/test tube
SMILES: O=C(c1ccccc1)c1ccc(OCCCC(=O)N2CCC[C@H]2C(=O)N2CCCC2)cc1 [compound 31]

IC50 (prolyl endopeptidase): 0.001 μg/test tube
SMILES: O=C(c1ccccc1)c1ccccc1OCCCC(=O)N1CCC[C@H]1C(=O)N1CCCC1 [compound 32]

IC50 (prolyl endopeptidase): 0.0004 μg/test tube
SMILES: O=C([C@@H]1CCCN1C(=O)CCCOc1cccc(Cc2ccccc2)c1)N1CCCC1 [compound 33]

IC50 (prolyl endopeptidase): 0.001 μg/test tube
SMILES: O=C([C@@H]1CCCN1C(=O)CCCOc1ccccc1Cc1ccccc1)N1CCCC1 [compound 34]

IC50 (prolyl endopeptidase): 0.003 μg/test tube
SMILES: O=C([C@@H]1CCCN1C(=O)CCCOc1ccc(/C=C/c2ccccc2)cc1)N1CCCC1 [compound 36]

SMILES: O=C([C@@H]1CCCN1C(=O)CCCOc1ccccc1CCc1ccccc1)N1CCCC1 [compound 37]
IC50 (prolyl endopeptidase): 0.002 μg/test tube
LD50 [2]: 350 mg/kg

IC50 (prolyl endopeptidase): 0.003 μg/test tube
SMILES: O=C([C@@H]1CCCN1C(=O)CCOc1ccccc1/C=C/c1ccccc1)N1CCCC1 [compound 39]

IC50 (prolyl endopeptidase): 0.002 μg/test tube
SMILES: O=C([C@@H]1CCCN1C(=O)CCCCOc1ccccc1/C=C/c1ccccc1)N1CCCC1 [compound 40]

IC50 (prolyl endopeptidase): 0.001 μg/test tube
SMILES: O=C(/C=C/c1ccccc1OCCCC(=O)N1CCC[C@H]1C(=O)N1CCCC1)c1ccccc1 [compound 41]

SMILES: O=C(/C=C/c1ccccc1)c1ccccc1OCCCC(=O)N1CCC[C@H]1C(=O)N1CCCC1 [compound 42]
IC50 (prolyl endopeptidase): 0.0008 μg/test tube
LD50 [2]: 360 mg/kg

IC50 (prolyl endopeptidase): 0.015 μg/test tube
SMILES: CCCCC/C=C\C/C=C\CCCCCCCC(=O)N1CCC[C@H]1C(=O)N1CCCC1 [compound 46]
